Where two headings read alike, the source gives them in different places.
Target: T1, ligand binding domain of human RORγ (A262-S507) (Homo sapiens, UniProt P51449)
T1 construct: made in house; host or cells: E. coli
T1 sequence (P51449 262-507): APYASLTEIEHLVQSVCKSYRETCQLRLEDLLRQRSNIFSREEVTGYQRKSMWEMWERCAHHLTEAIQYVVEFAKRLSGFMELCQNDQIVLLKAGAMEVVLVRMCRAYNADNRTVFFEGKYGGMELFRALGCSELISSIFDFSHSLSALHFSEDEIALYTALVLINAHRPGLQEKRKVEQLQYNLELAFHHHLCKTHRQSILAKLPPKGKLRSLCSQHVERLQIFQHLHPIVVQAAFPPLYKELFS
Test: General RORγ SPA binding assay (competition with [3H]25-hydroxycholesterol)
Details: inhibition of [3H]25-hydroxycholesterol binding
Experimental: Example 2 General RORγ SPA Binding Assay
The binding of potential ligands to RORγ is measured by competition with [^3H]25-hydroxycholesterol using a scintillation proximity assay (SPA) binding assay. The ligand binding domain of human RORγ (A262-S507) with an N-terminal His tag is expressed in E. coli and purified using nickel affinity chromotography. 50 nM RORγ (A262-S507) is incubated with test compound at varying concentrations for 15 min at room temperature in PBS buffer containing 0.5% fatty acid free BSA. […] of [^3H]25-hydroxycholesterol is then added, and the reaction is incubated for 15 min. 4 mg/mL of Ysi Copper HIS-TAG SPA Beads (Perkin Elmer) are added, and the mixture is incubated for 30 min. The reaction is read on a MicroBeta Trilux scintillation plate reader (Perkin Elmer). IC50 values are determined from the percentage inhibition of [^3H]25-hydroxycholesterol binding.

[1] = RORγ SPA binding assay, read-out: IC50

Row | Compound | IC50 [1] [nM] | IC50 (IC50, RORγ SPA binding assay) [nM]
1 | Cc1nc(C)c(-c2nnc(-c3ccnc(C(F)(F)F)n3)o2)c(C2CCN(C(=O)Nc3c(F)cccc3C(F)(F)F)CC2)n1 [Compound C40, 4-(2,6-Dimethyl-5-{5-[2-(trifluoromethyl)pyrimidin-4-yl]-1,3,4-oxadiazol-2-yl}pyrimidin-4-yl)-N-[2-fluoro-6-(trifluoromethyl)phenyl]piperidine-1-carboxamide] | 47.5 | –
2 | Cc1ncc(C(=O)NC(CO)c2cccc(Cl)c2)c(C2CCN(C(=O)Cc3c(F)cccc3F)CC2)n1 (stereo not drawn) [Compound A110, N-(1-(3-Chlorophenyl)-2-hydroxyethyl)-4-(1-(2-(2,6-difluorophenyl)acetyl)piperidin-4-yl)-2-methylpyrimidine-5-carboxamide] | 1440 | –
3 | Cc1nc(C)c(C(=O)NCc2cccc(Cl)c2)c(C2CCN(C(=O)Cc3c(F)cccc3F)CC2)n1 [Compound A81] | 5.2 | –
4 | CC(O)(COc1ccnc(C(F)(F)F)n1)c1cnc(N)nc1C1CCN(C(=O)Oc2ccc(F)cc2)CC1 (stereo not drawn) [Compound D50, 4-Fluorophenyl 4-[2-amino-5-(1-hydroxy-1-methyl-2-{[2-(trifluoromethyl)pyrimidin-4-yl]oxy}ethyl)pyrimidin-4-yl]piperidine-1-carboxylate] | – | 15
5 | CCNc1ncc(C(=O)NCc2cccc(Cl)c2)c(C2CCN(C(=O)Cc3c(F)cccc3F)CC2)n1 [Compound A91, N-(3-chlorobenzyl)-4-(1-(2-(2,6-difluorophenyl)acetyl)piperidin-4-yl)-2-(ethylamino)pyrimidine-5-carboxamide] | 6.7 | –
6 | Cc1ncc(C(=O)NCc2ccc(Cl)nc2)c(C2CCN(C(=O)Cc3c(F)cccc3F)CC2)n1 [Compound A71, N-((6-chloropyridin-3-yl)methyl)-4-(1-(2-(2,6-difluorophenyl)acetyl)piperidin-4-yl)-2-methylpyrimidine-5-carboxamide] | 242 | –
7 | Cc1cccc(CNC(=O)c2cnc(C)nc2C2CCN(C(=O)Cc3c(F)cccc3F)CC2)c1 [Compound A60, 4-(1-(2-(2,6-difluorophenyl)acetyl)piperidin-4-yl)-2-methyl-N-(3-methylbenzyl)pyrimidine-5-carboxamide] | 35 | –
8 | Cc1cc(C)cc(CNC(=O)c2cnc(C)nc2C2CCN(C(=O)[C@@H](C)c3ccccc3)CC2)c1 [Compound A26, (S)-N-(3,5-dimethylbenzyl)-2-methyl-4-(1-(2-phenylpropanoyl)piperidin-4-yl)pyrimidine-5-carboxamide] | 446 | –
9 | CCc1ncc(C(=O)NCc2cc(C)cc(C)c2)c(C2CCN(C(=O)Cc3c(F)cccc3F)CC2)n1 [Compound A64, 4-(1-(2-(2,6-difluorophenyl)acetyl)piperidin-4-yl)-N-(3,5-dimethylbenzyl)-2-ethylpyrimidine-5-carboxamide] | 64 | –
10 | Cc1nc(C)c(-c2nc(-c3cccc(Cl)c3)no2)c(C2CCN(C(=O)Cc3c(F)cccc3F)CC2)n1 [Compound C4, 1-(4-(5-(3-(3-chlorophenyl)-1,2,4-oxadiazol-5-yl)-2,6-dimethylpyrimidin-4-yl)piperidin-1-yl)-2-(2,6-difluorophenyl)ethanone] | 620 | –
11 | C/C(=N/Oc1cccc(OC(F)(F)F)c1)c1cnc(C)nc1C1CCN(C(=O)Cc2c(F)cccc2F)CC1 [Compound B8, (Z)-2-(2,6-difluorophenyl)-1-(4-(2-methyl-5-(1-((3-(trifluoromethoxy)phenoxy)imino)ethyl)pyrimidin-4-yl)piperidin-1-yl)ethanone] | 1500 | –
12 | [2H]C([2H])(C(=O)N1CCC(c2nc(C)nc(C)c2-c2nnc(-c3ccnc(C(F)(F)F)n3)o2)CC1)c1c(F)cccc1F [Compound C38, 4-{1-[(2,6-Difluorophenyl)acetyl-2,2-d2]piperidin-4-yl}-2,6-dimethyl-5-{5-[2-(trifluoromethyl)pyrimidin-4-yl]-1,3,4-oxadiazol-2-yl}pyrimidine] | 8 | –
13 | Cc1cc(C)cc(CNC(=O)c2cnc(C)nc2C2CCN(C(=O)C(F)(F)c3ccccc3F)CC2)c1 [Compound A118, 4-{1-[Difluoro(2-fluorophenyl)acetyl]piperidin-4-yl}-N-[(3,5-dimethylphenyl)methyl]-2-methylpyrimidine-5-carboxamide] | 51.6 | –
14 | Cc1nc(C)c(-c2nnc(-c3ccc(Cl)nc3)o2)c(C2CCN(C(=O)Cc3c(F)cccc3F)CC2)n1 [Compound C23, 1-(4-(5-(5-(6-chloropyridin-3-yl)-1,3,4-oxadiazol-2-yl)-2,6-dimethylpyrimidin-4-yl)piperidin-1-yl)-2-(2,6-difluorophenyl)ethanone] | 5290 | –

Second part, led by results:

Row | IC50 [1] [nM] | Compound | IC50 (IC50, RORγ SPA binding assay) [nM]
15 | 3.4 | COc1ncc(C(C)(O)COc2cccc(C(F)(F)F)n2)c(C2CCN(C(=O)Nc3c(F)cccc3F)CC2)n1 (stereo not drawn) [Compound D45, N-(2,6-Difluorophenyl)-4-[5-(1-hydroxy-1-methyl-2-{[6-(trifluoromethyl)pyridin-2-yl]oxy}ethyl)-2-(methyloxy)pyrimidin-4-yl]piperidine-1-carboxamide] | –
16 | 12.1 | COc1ncc(C(O)COc2cccc(C(F)(F)F)n2)c(C2CCN(C(=O)Nc3c(F)cccc3F)CC2)n1 (stereo not drawn) [Compound N4, N-(2,6-Difluorophenyl)-4-[5-(1-hydroxy-2-{[6-(trifluoromethyl)pyridin-2-yl]oxy}ethyl)-2-(methyloxy)pyrimidin-4-yl]piperidine-1-carboxamide] | –
17 | 5.5 | Cc1ncc(C(O)(CN)COc2cccc(C(F)(F)F)n2)c(C2CCN(C(=O)Cc3c(F)cccc3F)CC2)n1 (stereo not drawn) [Compound N35, 1-Amino-2-(4-{1-[(2,6-difluorophenyl)acetyl]piperidin-4-yl}-2-methylpyrimidin-5-yl)-3-{[6-(trifluoromethyl)pyridin-2-yl]oxy}propan-2-ol] | –
18 | 10.9 | Cc1ncc(C(O)(CCO)COc2cccc(C(F)(F)F)n2)c(C2CCN(C(=O)Nc3c(F)cccc3F)CC2)n1 (stereo not drawn) [Compound N30, N-(2,6-Difluorophenyl)-4-{5-[1,3-dihydroxy-1-({[6-(trifluoromethyl)pyridin-2-yl]oxy}methyl)propyl]-2-methylpyrimidin-4-yl}piperidine-1-carboxamide] | –
19 | 28 | Cc1cc(C)cc(C/C=C\c2cnc(C)nc2C2CCN(C(=O)Cc3c(F)cccc3F)CC2)c1 [Compound J2, (Z)-2-(2,6-Difluorophenyl)-1-(4-(5-(3-(3,5-dimethylphenyl)prop-1-enyl)-2-methylpyrimidin-4-yl)piperidin-1-yl)ethanone] | –
20 | 4110 | Cc1cc(C)cc(C(=O)NCc2cnc(C)nc2C2CCN(C(=O)Cc3c(F)cccc3F)CC2)c1 [Compound K1, N-((4-(1-(2-(2,6-Difluorophenyl)acetyl)piperidin-4-yl)-2-methylpyrimidin-5-yl)methyl)-3,5-dimethylbenzamide] | –
21 | 105 | Cc1ncc(C(C)(O)CNc2cc(C(F)(F)F)ccn2)c(C2CCN(C(=O)Cc3c(F)cccc3F)CC2)n1 (stereo not drawn) [Compound D8, 2-(2,6-difluorophenyl)-1-(4-(5-(2-hydroxy-1-((4-(trifluoromethyl)pyridin-2-yl)amino)propan-2-yl)-2-methylpyrimidin-4-yl)piperidin-1-yl)ethanone] | –
22 | 3.9 | Cc1ncc(C(C)(O)CNc2cccc(C(F)(F)F)n2)c(C2CCN(C(=O)Cc3c(F)cccc3F)CC2)n1 (stereo not drawn) [Compound D2, 2-(2,6-difluorophenyl)-1-(4-(5-(2-hydroxy-1-((6-(trifluoromethyl)pyridin-2-yl)amino)propan-2-yl)-2-methylpyrimidin-4-yl)piperidin-1-yl)ethanone] | –
23 | 1630 | Cc1ncc(C(=O)NOc2cc(F)cc(Cl)c2)c(C2CCN(C(=O)Cc3c(F)cccc3F)CC2)n1 [Compound H6, N-(3-chloro-5-fluorophenoxy)-4-(1-(2-(2,6-difluorophenyl)acetyl)piperidin-4-yl)-2-methylpyrimidine-5-carboxamide] | –
24 | 9.8 | Cc1cc(C)cc(CNC(c2cnc(C)nc2C2CCN(C(=O)Cc3c(F)cccc3F)CC2)C(F)(F)F)c1 (stereo not drawn) [Compound F7, 2-(2,6-Difluorophenyl)-1-(4-(5-(1-(3,5-dimethylbenzylamino)-2,2,2-trifluoroethyl)-2-methylpyrimidin-4-yl)piperidin-1-yl)ethanone] | –
25 | 19.5 | Nc1ncc(C(O)COc2ccnc(C(F)(F)F)n2)c(C2CCN(C(=O)Nc3c(F)cccc3F)CC2)n1 (stereo not drawn) [Compound N2, 4-[2-Amino-5-(1-hydroxy-2-{[2-(trifluoromethyl)pyrimidin-4-yl]oxy}ethyl)pyrimidin-4-yl]-N-(2,6-difluorophenyl)piperidine-1-carboxamide] | –
26 | 76 | Cc1ncc(C(C)(C)CNc2ccnc(C(F)(F)F)n2)c(C2CCN(C(=O)Cc3c(F)cccc3F)CC2)n1 [Compound F1, 2-(2,6-Difluorophenyl)-1-(4-(2-methyl-5-(2-methyl-1-(2-(trifluoromethyl)pyrimidin-4-ylamino)propan-2-yl)pyrimidin-4-yl)piperidin-1-yl)ethanone] | –
27 | 141 | Cc1ncc(/C(COc2cccc(C(F)(F)F)n2)=N/O)c(C2CCN(C(=O)Nc3c(F)cccc3F)CC2)n1 [Compound N26, N-(2,6-difluorophenyl)-4-{5-[(1Z)—N-hydroxy-2-{[6-(trifluoromethyl)pyridin-2-yl]oxy}ethanimidoyl]-2-methylpyrimidin-4-yl}piperidine-1-carboxamide] | –
